Reference: patent publication US20180298405A1, “METHODS AND COMPOSITIONS TO INCREASE HUMAN SOMATIC CELL NUCLEAR TRANSFER (SCNT) EFFICIENCY BY REMOVING HISTONE H3-LYSINE TRIMETHYLATION, AND DERIVATION OF HUMAN NT-ESC” (CHILDREN'S MEDICAL CENTER CORPORATION, priority 2015, published 2018)

Test system: reprogramming resistant regions (RRRs) / ZGA genes
Test: RNA-seq of late 8-cell human SCNT embryos with or without KDM4A mRNA injection (ZGA of RRRs, KDM4A-responsive genes)
Format: cell-based
Source text: A sliding window (size 20 kb, step size 10 kb) was used to assess the genome-wide expression level of 4-cell and 8-cell human embryos. For each window, the expression level was quantified with normalized RPM (reads per millions of uniquely mapped reads). […] These activated regions were classed into three groups based on their expression differences in human SCNT and IVF 8-cell embryos.
The SCNT embryos used for ZGA analysis were generated using oocytes donated by a single healthy person (#64) and dermal fibroblast cells from an AMD patient (DFB-8). SCNT and IVF embryos were cultured up to late 8-cell stage, when the compaction of blastomeres is initiated, then they were treated briefly with acid Tyrode solution to remove zona pellucida. To prepare for the 8-cell SCNT embryo, oocytes from a single oocyte donor, and skin fibroblast cells from a single somatic nuclear donor were used. All the procedures are the same as described in the “Human SCNT procedure and KMD4A mRNA injection” section. Only embryos that reached the late 8-cell stage synchronically 74 hours post activation were collected and used for this experiment.
For preparation of the control IVF embryos, several donated early 8-cell stage IVF embryos were thawed and cultured for 5-7 hours to allow them to reach late 8-cell stage before being processed. After removal of the zona pellucida, the denuded embryos were washed 3 times in PBS, loaded into RNAse and DNAse free PCR tubes, spin downed, and snap frozen in liquid nitrogen. Then, they were kept at −80° C. until use. As controls, dermal fibroblast cells of somatic nuclear donors were also prepared. Those fibroblast cells were cultured in a 25 cm^2 flask in DMEM 10% FBS, and approximately 10,000 cells/donor were collected, snap frozen, and stored at −80° C. until use.
Five 8-cell embryos for each group were directly lysed and used for cDNA synthesis using SMART-Seq v4 Ultra Low Input RNA Kit (Clontech). For MEF donor, 10 ng total RNA was used for cDNA synthesis using SMART-Seq v4 Ultra Low Input RNA Kit. After amplification, the cDNA samples were fragmented using Covaris sonicator M220 to an average size of 150 bp (Covaris). Sequencing libraries were made with the fragmented DNA using NEBNext Ultra DNA Library Prep Kit for Illumina according to manufacturer's instruction (New England Biolabs) with different barcodes. For each RNA-seq analysis of hESCs, 1 μg total RNA was used for mRNA purification. Barcoded RNA-seq libraries were generated using NEBNext Ultra Directional RNA Library Prep Kit for Illumina (New England Biolabs). Single end 50 bp sequencing was performed on a HiSeq 2500 sequencer (Illumina). Sequencing reads were mapped to the human genome (hg19) with Tophat2. All programs were performed with default settings (unless otherwise specified). At least 22 million uniquely mapped reads were obtained for each sequencing library, and subsequently assembled into transcripts guided by the reference annotation (Refseq gene models) with Cufflinks v2.0.2. Expression level of each gene was quantified with normalized FPKM (fragments per kilobase of exon per million mapped fragments). Statistical analyses were performed with R (available at: “www.r-project.org/”). Independent 2 group Wilcoxon rank sum tests were used to compare distributions using the wilcox.test function in R. Pearson's r coefficient was calculated using the cor function with default parameters. The hierarchical clustering analysis of the global gene expression pattern in different samples was carried out using heatmap.2 function (gplots package) in R.

[1] = 8-cell SCNT embryos, FC>2 versus non-injected

For “KDM4A mRNA: in vitro transcribed mRNA of full length human KDM4A/JHDM3A cDNA, an H3K9me3 demethylase (SEQ ID NO: 1)”, the “fraction of the 318 RRRs markedly up-regulated” value [1] was 50%, the “number of the 318 RRRs markedly up-regulated” value [1] was 158 and the “number of genes significantly up-regulated (KDM4A-responsive genes)” value (8-cell SCNT embryos, FPKM>5, FC>2) was 206. The “12-Sep Fold Change (log2) [KDM4A SCNT/Control SCNT]” value (8-cell embryos) was 2 log2, the “AASDH Fold Change (log2) [KDM4A SCNT/Control SCNT]” value (8-cell embryos) was 1.19 log2 and the “ACBD5 Fold Change (log2) [KDM4A SCNT/Control SCNT]” value (8-cell embryos) was 1.32 log2. The “ALG5 Fold Change (log2) [KDM4A SCNT/Control SCNT]” value (8-cell embryos) was 1.89 log2, the “ALPPL2 Fold Change (log2) [KDM4A SCNT/Control SCNT]” value (8-cell embryos) was 1.25 log2 and the “APOC1P1 Fold Change (log2) [KDM4A SCNT/Control SCNT]” value (8-cell embryos) was 1.03 log2. For the same substance, the “ATP5J2-PTCD1 Fold Change (log2) [KDM4A SCNT/Control SCNT]” value (8-cell embryos) was 5.53 log2, the “BEX2 Fold Change (log2) [KDM4A SCNT/Control SCNT]” value (8-cell embryos) was 1.05 log2 and the “BLVRB Fold Change (log2) [KDM4A SCNT/Control SCNT]” value (8-cell embryos) was 1.56 log2. The “BTAF1 Fold Change (log2) [KDM4A SCNT/Control SCNT]” value (8-cell embryos) was 1.93 log2, the “BTK Fold Change (log2) [KDM4A SCNT/Control SCNT]” value (8-cell embryos) was 1.09 log2 and the “BUD31 Fold Change (log2) [KDM4A SCNT/Control SCNT]” value (8-cell embryos) was 1.19 log2. The “C1D Fold Change (log2) [KDM4A SCNT/Control SCNT]” value (8-cell embryos) was 1.67 log2, the “C2orf74 Fold Change (log2) [KDM4A SCNT/Control SCNT]” value (8-cell embryos) was 1.28 log2 and the “C11orf67 Fold Change (log2) [KDM4A SCNT/Control SCNT]” value (8-cell embryos) was 1.34 log2. For the same substance, the “C12orf60 Fold Change (log2) [KDM4A SCNT/Control SCNT]” value (8-cell embryos) was 1.78 log2, the “C16orf91 Fold Change (log2) [KDM4A SCNT/Control SCNT]” value (8-cell embryos) was 1.24 log2 and the “C17orf89 Fold Change (log2) [KDM4A SCNT/Control SCNT]” value (8-cell embryos) was 1.09 log2. For the same substance, the “C18orf56 Fold Change (log2) [KDM4A SCNT/Control SCNT]” value (8-cell embryos) was 1.43 log2, the “C20orf7 Fold Change (log2) [KDM4A SCNT/Control SCNT]” value (8-cell embryos) was 2.14 log2 and the “CAB39L Fold Change (log2) [KDM4A SCNT/Control SCNT]” value (8-cell embryos) was 1.23 log2. For the same substance, the “CCAR1 Fold Change (log2) [KDM4A SCNT/Control SCNT]” value (8-cell embryos) was 1.15 log2, the “CCDC86 Fold Change (log2) [KDM4A SCNT/Control SCNT]” value (8-cell embryos) was 1.1 log2 and the “CCL2 Fold Change (log2) [KDM4A SCNT/Control SCNT]” value (8-cell embryos) was 3.05 log2. The “CCL15 Fold Change (log2) [KDM4A SCNT/Control SCNT]” value (8-cell embryos) was 2.82 log2, the “CELA3B Fold Change (log2) [KDM4A SCNT/Control SCNT]” value (8-cell embryos) was 1.63 log2 and the “CENPC1 Fold Change (log2) [KDM4A SCNT/Control SCNT]” value (8-cell embryos) was 1.1 log2. The “CLC Fold Change (log2) [KDM4A SCNT/Control SCNT]” value (8-cell embryos) was 3.69 log2, the “CLDN6 Fold Change (log2) [KDM4A SCNT/Control SCNT]” value (8-cell embryos) was 1.65 log2 and the “CLK4 Fold Change (log2) [KDM4A SCNT/Control SCNT]” value (8-cell embryos) was 1.21 log2. For the same substance, the “CNKSR3 Fold Change (log2) [KDM4A SCNT/Control SCNT]” value (8-cell embryos) was 1.48 log2, the “CNPY4 Fold Change (log2) [KDM4A SCNT/Control SCNT]” value (8-cell embryos) was 1.77 log2 and the “COX7B2 Fold Change (log2) [KDM4A SCNT/Control SCNT]” value (8-cell embryos) was 3.15 log2. The “COX17 Fold Change (log2) [KDM4A SCNT/Control SCNT]” value (8-cell embryos) was 1.44 log2, the “CSAG1 Fold Change (log2) [KDM4A SCNT/Control SCNT]” value (8-cell embryos) was 3.27 log2 and the “CSTF3 Fold Change (log2) [KDM4A SCNT/Control SCNT]” value (8-cell embryos) was 1.29 log2. For the same substance, the “CUL2 Fold Change (log2) [KDM4A SCNT/Control SCNT]” value (8-cell embryos) was 1.29 log2, the “CXorf61 Fold Change (log2) [KDM4A SCNT/Control SCNT]” value (8-cell embryos) was 2.18 log2 and the “DDX26B Fold Change (log2) [KDM4A SCNT/Control SCNT]” value (8-cell embryos) was 1.14 log2. The “DEFB122 Fold Change (log2) [KDM4A SCNT/Control SCNT]” value (8-cell embryos) was 1.06 log2, the “DLEU7 Fold Change (log2) [KDM4A SCNT/Control SCNT]” value (8-cell embryos) was 4.91 log2 and the “DNASE2 Fold Change (log2) [KDM4A SCNT/Control SCNT]” value (8-cell embryos) was 1.11 log2. For the same substance, the “DRAM1 Fold Change (log2) [KDM4A SCNT/Control SCNT]” value (8-cell embryos) was 1.6 log2, the “ECE2 Fold Change (log2) [KDM4A SCNT/Control SCNT]” value (8-cell embryos) was 1.09 log2 and the “EIF1AD Fold Change (log2) [KDM4A SCNT/Control SCNT]” value (8-cell embryos) was 1.18 log2. For the same substance, the “ELL2 Fold Change (log2) [KDM4A SCNT/Control SCNT]” value (8-cell embryos) was 1.01 log2, the “FAM9A Fold Change (log2) [KDM4A SCNT/Control SCNT]” value (8-cell embryos) was 3.83 log2 and the “FAM19A3 Fold Change (log2) [KDM4A SCNT/Control SCNT]” value (8-cell embryos) was 2.58 log2.
